Experimental findings from ChEMBL document CHEMBL1201862, “PubChem BioAssay data set” (2004) are described below.

The structures appear in SMILES notation.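 Briefly, cells in 96-well plates were exposed to five compound concentrations for 48 h, and endpoints were estimated by linear interpolation. GI50: concentration for 50% inhibition of growth.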 Activity calls are given as the source filed them. No stated cut-off is given here; in the data, active = GI50 up to about 1.1 µM and inactive = higher.

Test systems include EKVX; HCT-15; HOP-62; HOP-92; IGROV-1; NCI-H226; NCI-H460; OVCAR-4; RXF 393; SF-268; SF-539; SK-MEL-28; SK-MEL-5; SN12C; SW-620; U-251; TK-10; MDA-N; NCI/ADR-RES.
Holding throughout (assay): NCI tumour cell line growth inhibition, 48 h

Turning to `N/N=c1\c2ccccc2c2cc3c(cc12)/c(=N/N)c1ccccc13`, the GI50 in the test with EKVX is > 100 µM (inactive); in the test with HCT-15, more than 100 µM; in the test on HOP-62, > 100 µM (inactive); in the test with HOP-92, > 100 µM (inactive); in the test with IGROV-1, > 100 µM (inactive); in the test with NCI-H226 it was > 100 µM (inactive). Also, the GI50 in the test on NCI-H460, with OVCAR-4, in the test with RXF 393, in the test with SF-268, in the test on SF-539 and with SK-MEL-28 was > 100 µM (inactive) each time. The GI50 in the test on SK-MEL-5, in the test with SN12C, in the test with SW-620 and in the test on U-251 was > 100 µM (inactive) in each case.
In the case of `COc1ccc(OC2(c3cc(OC)ccc3OC)OC(=O)c3ccccc32)cc1` (stereo not given), the GI50 in the test with EKVX was > 100 µM (inactive); with HCT-15, more than 100 µM; in the test with HOP-62, > 100 µM (inactive); in the test on HOP-92, > 100 µM (inactive); in the test on IGROV-1, > 100 µM (inactive); with NCI-H226, > 100 µM (inactive). Moreover, the GI50 in the test on NCI-H460, in the test with OVCAR-4, with RXF 393, in the test on SF-268, with SF-539 and with SK-MEL-28 was > 100 µM (inactive) throughout. In addition, the GI50 in the test on SK-MEL-5, with SN12C, with SW-620, with TK-10 and in the test with U-251 was > 100 µM (inactive) in each case.
With `S=c1cc(S)c2c(=S)sc3nc4ccccn4c(=S)c3c2s1`, the GI50 in the test on EKVX is 81.8 µM (inactive); in the test with HCT-15, 49.8 µM; with HOP-92 it was > 100 µM (inactive); in the test on NCI-H226 it was > 100 µM (inactive); in the test on NCI-H460 it was 21.3 µM (inactive); with OVCAR-4 it was > 100 µM (inactive). Also, the GI50 in the test on RXF 393 is > 100 µM (inactive); in the test on SF-539 it was 41 µM (inactive); in the test with SK-MEL-28 it was > 100 µM (inactive); with SK-MEL-5, 38.5 µM (inactive); in the test on SN12C, 48.8 µM (inactive); in the test with SW-620, > 100 µM (inactive). Also, the results for the GI50 with TK-10 and with U-251 were > 100 µM (inactive) and 54.5 µM (inactive), respectively.
With `S=C(N/N=C/c1ccco1)NC12CC3CC(CC(C3)C1)C2`, the GI50 with EKVX was > 100 µM (inactive); in the test with HCT-15, 47.4 µM; in the test with HOP-62 it was > 100 µM (inactive); with HOP-92, 47 µM (inactive); with IGROV-1, > 100 µM (inactive); in the test with NCI-H226, > 100 µM (inactive). The GI50 is 66.2 µM (inactive) with NCI-H460; 65.3 µM (inactive) with OVCAR-4; > 100 µM (inactive) in the test with RXF 393; > 100 µM (inactive) in the test on SF-268; > 100 µM (inactive) with SF-539; > 100 µM (inactive) with SK-MEL-28. For the same molecule, the GI50 in the test on SK-MEL-5 is 73.8 µM (inactive); in the test on SN12C, > 100 µM (inactive); in the test on SW-620 it was > 100 µM (inactive); in the test on TK-10, 49.5 µM (inactive); with U-251, 73.8 µM (inactive).
With `O=C(COC(=O)c1cccc2c(=O)c3ccccc3[nH]c12)Nc1ccccc1`, the GI50 was > 100 µM (inactive) with EKVX; > 100 µM (inactive) in the test with HOP-62; 45 µM (inactive) in the test on HOP-92; > 100 µM (inactive) in the test with IGROV-1; 33.3 µM (inactive) in the test on NCI-H226; 94.6 µM (inactive) in the test with NCI-H460. In addition, the GI50 with OVCAR-4 was 45.6 µM (inactive); in the test with RXF 393 it was 33.1 µM (inactive); in the test on SF-268 it was > 100 µM (inactive); with SF-539, 51.8 µM (inactive); in the test on SK-MEL-28 it was 43.5 µM (inactive); with SK-MEL-5, 19.8 µM (inactive). The GI50 in the test on SN12C was > 100 µM (inactive); in the test with SW-620, 90.8 µM (inactive); with TK-10 it was > 100 µM (inactive); in the test with U-251, 71.4 µM (inactive).
Regarding `Cc1noc2cccc(OCc3ccccc3)c12`, the GI50 in the test with EKVX was 35.7 µM (inactive); with HCT-15, 50.8 µM; in the test on HOP-62 it was > 100 µM (inactive); in the test with HOP-92 it was 43.3 µM (inactive); in the test on IGROV-1, 60.1 µM (inactive); in the test with NCI-H226 it was 46.5 µM (inactive). The GI50 in the test with NCI-H460 is > 100 µM (inactive); with OVCAR-4, 82.8 µM (inactive); in the test with RXF 393 it was 30.8 µM (inactive); in the test with SF-268 it was > 100 µM (inactive); with SF-539, > 100 µM (inactive); with SK-MEL-28 it was > 100 µM (inactive). Further, the GI50 was 17.1 µM (inactive) in the test with SK-MEL-5; > 100 µM (inactive) with SN12C; > 100 µM (inactive) with SW-620; 47 µM (inactive) with TK-10; 93.8 µM (inactive) in the test on U-251.
On to `C/C(CC(=O)Nc1ccc(Cl)c(Cl)c1)=N/NC(=O)C[N+](C)(C)C`, for which the GI50 was > 100 µM (inactive) in the test on EKVX; more than 100 µM in the test on HCT-15; > 100 µM (inactive) in the test with HOP-62; > 100 µM (inactive) in the test with HOP-92; > 100 µM (inactive) with IGROV-1; > 100 µM (inactive) in the test on NCI-H226. Also, the GI50 in the test on NCI-H460 is 65.2 µM (inactive); in the test on OVCAR-4 it was > 100 µM (inactive); in the test on RXF 393, > 100 µM (inactive); in the test with SF-268, > 100 µM (inactive); in the test on SF-539, > 100 µM (inactive); with SK-MEL-28 it was 0.194 µM (active). The GI50 with SK-MEL-5, in the test with SN12C and in the test with TK-10 was > 100 µM (inactive) each time.
On to `CN1N=C(c2ccccc2)c2cc(Cl)ccc2N=C1N/N=C/c1ccc(N(C)C)cc1`, for which the GI50 in the test with EKVX is > 100 µM (inactive); in the test with HCT-15, 87.7 µM; in the test with HOP-62 it was > 100 µM (inactive); with IGROV-1, > 100 µM (inactive); with MDA-N it was > 100 µM (inactive); in the test on NCI-H226 it was 58.1 µM (inactive). The GI50 with NCI-H460, in the test on NCI/ADR-RES, with OVCAR-4, in the test on RXF 393, in the test with SF-268 and with SF-539 was > 100 µM (inactive) each time. For the same molecule, the GI50 in the test on SK-MEL-28, in the test with SK-MEL-5, in the test on SN12C, in the test with SW-620, with TK-10 and in the test with U-251 was > 100 µM (inactive) in each case.
On to `O=[N+]([O-])c1ccc2nc(/C(=N/Nc3ccccc3)C(O)c3ccc(Cl)cc3Cl)c(O)nc2c1` (stereo not given), for which the GI50 is > 100 µM (inactive) in the test on EKVX; more than 100 µM in the test with HCT-15; > 100 µM (inactive) in the test with HOP-62; > 100 µM (inactive) in the test on HOP-92; > 100 µM (inactive) in the test on IGROV-1; > 100 µM (inactive) with NCI-H226. The GI50 in the test with NCI-H460 was > 100 µM (inactive); with OVCAR-4 it was > 100 µM (inactive); with RXF 393, > 100 µM (inactive); with SF-268 it was > 100 µM (inactive); with SF-539, > 100 µM (inactive); in the test with SK-MEL-5 it was 21.8 µM (inactive). In addition, the GI50 in the test with SN12C, in the test with TK-10 and with U-251 was > 100 µM (inactive) in each case.
In the case of `COc1cc(C2c3cc4c(cc3[C@@H](OCCN)[C@H]3COC(=O)C23)OCO4)cc(OC)c1O` (stereo not given in full), the GI50 was 0.413 µM (active) in the test on EKVX; 2.87 µM in the test with HCT-15; 0.069 µM (active) in the test on HOP-62; 0.082 µM (active) in the test on HOP-92; 1.15 µM (inactive) with IGROV-1; 0.0873 µM (active) in the test on NCI-H226. Besides, the GI50 is < 0.01 µM (active) with NCI-H460; 2.05 µM (inactive) with OVCAR-4; 0.44 µM (active) in the test with RXF 393; 0.159 µM (active) with SF-268; 0.105 µM (active) in the test on SF-539; 0.518 µM (active) in the test on SK-MEL-28. The GI50 in the test with SK-MEL-5 was 0.2 µM (active); with SN12C it was 0.107 µM (active); in the test with SW-620 it was 0.179 µM (active); in the test with TK-10 it was 2.14 µM (inactive); with U-251 it was 0.0405 µM (active).
As for `COc1cc2c(cc1O)CN1CCC23C=C[C@@H](O)CC13` (stereo not given in full), the GI50 is 65.8 µM (inactive) with EKVX; 68.4 µM in the test on HCT-15; > 100 µM (inactive) in the test with HOP-62; > 100 µM (inactive) in the test on HOP-92; 88.3 µM (inactive) with IGROV-1; 76.4 µM (inactive) with NCI-H226. Moreover, the GI50 is 62.8 µM (inactive) in the test on NCI-H460; 33.2 µM (inactive) in the test with OVCAR-4; 38.2 µM (inactive) with RXF 393; 59.6 µM (inactive) in the test on SF-268; 76.4 µM (inactive) in the test with SK-MEL-28; 39.6 µM (inactive) in the test with SK-MEL-5. Moreover, the GI50 was 46.2 µM (inactive) with SN12C, 59.6 µM (inactive) in the test with SW-620, > 100 µM (inactive) with TK-10 and 46.7 µM (inactive) in the test with U-251.
On to `COc1ccc(-c2cc(=O)c3c(O)c(O)c(OC)cc3o2)cc1O`, for which the GI50 in the test with EKVX is > 100 µM (inactive); in the test on HCT-15 it was more than 100 µM; in the test on HOP-62 it was > 100 µM (inactive); in the test on HOP-92 it was > 100 µM (inactive); in the test with IGROV-1, > 100 µM (inactive); in the test with NCI-H226, > 100 µM (inactive). In addition, the GI50 in the test on NCI-H460 is 57.9 µM (inactive); in the test on OVCAR-4, > 100 µM (inactive); in the test with RXF 393, > 100 µM (inactive); in the test on SF-268, 84.5 µM (inactive); with SF-539 it was > 100 µM (inactive); in the test with SK-MEL-28, > 100 µM (inactive). In addition, the GI50 in the test on SK-MEL-5, in the test with SN12C, in the test with SW-620, in the test on TK-10 and with U-251 was > 100 µM (inactive) each time.
